According to the NIST ThermoML archive (doi:10.1016/j.tca.2014.04.012):
Numbers after ± are expanded uncertainties.

Settings: Crystal; visual observation

| Normal melting temperature | SMILES |
| --- | --- |
| 260.00 ± 2 °C | CN1C(=O)N(C)C2NC(=O)NC21 (configuration not stated) |
| 310.00 ± 2 °C | CCN1C(=O)N(CC)C2NC(=O)NC21 (configuration not stated) |
